This note sets out measurements from doi:10.1101/2021.08.02.454818v1 (biorxiv, 2021).

This test concerns the target T1, CdRelQ (Clostridioides difficile, UniProt A0A9R0BI07).
T1 sequence (A0A9R0BI07 1-270): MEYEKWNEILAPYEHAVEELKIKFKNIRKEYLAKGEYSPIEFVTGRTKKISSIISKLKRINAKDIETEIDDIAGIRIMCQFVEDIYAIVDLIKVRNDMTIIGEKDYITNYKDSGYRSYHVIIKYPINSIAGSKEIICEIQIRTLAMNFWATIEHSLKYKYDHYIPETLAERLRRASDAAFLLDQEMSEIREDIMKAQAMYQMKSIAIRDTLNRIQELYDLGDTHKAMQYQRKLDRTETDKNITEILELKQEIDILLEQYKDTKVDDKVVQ
The test is described as follows: isothermal titration calorimetry, single-binding-site model.

The Kd is the equilibrium constant for the complex coming apart. In turn, `Nc1nc2c(ncn2[C@@H]2O[C@H](COP(=O)(O)OP(=O)(O)O)[C@@H](O)[C@H]2O)c(=O)[nH]1` [GDP] had a Kd of 490 µM.
As for `Nc1nc2c(ncn2[C@@H]2O[C@H](COP(=O)(O)OP(=O)(O)OP(=O)(O)O)[C@@H](O)[C@H]2O)c(=O)[nH]1` [GTP], the figure is 20.5 µM.
